According to patent publication US7381744B1, “Method of treating osteoporosis comprising vacuolar-type (H+)-ATPase-inhibiting compounds” (The United States of America as represented by the …, priority 1999, dated 2008):

Legend:
Assay type in all cases: biochemical
[1] = tested on: vacuolar-type (H+)-ATPase derived from human kidney cells (hK); test: vacuolar-type (H+)-ATPase inhibition assay, membrane vesicles (hK); conditions: bafilomycin-sensitive activity; oligomycin 5 μg/ml and vanadate 1 mM present; 37°, 30 minutes
Protocol: (§1) Inhibition of bafilomycin-sensitive vacuolar-type (H+)-ATPase activity was measured in partially purified membrane vesicle preparations from human osteoclastoma cells (hOc), human renal cortical cells (hK), and macrophage cells (J774). The vesicles were prepared by appropriate adaptations of methods described in Gagliardi et al., J. Med. Chem., 41, 1568-1573 (1998); and Gagliardi et al., J. Med. Chem., 41, 1883-1893 (1998).
(§2) Vacuolar-type (H+)-ATPase assays were performed in the presence of oligomycin (5 μg/ml) and vanadate (1 mM) as inhibitors of F- and P-ATPases, respectively. A […] method was used to quantitate the residual bafilomycin-sensitive vacuolar-type (H+)-ATPase activity (see Chan et al., Anal. Biochem., 157, 375-380 (1986)). The assay measures the release of inorganic phosphate from ATP at 37° during 30 minutes of incubation. The reaction is initiated by the addition of MgSO4 ([…]).

[2] = tested on: vacuolar-type (H+)-ATPase derived from macrophage cells (J774); test: vacuolar-type (H+)-ATPase inhibition assay, membrane vesicles (J774); conditions: bafilomycin-sensitive activity; oligomycin 5 μg/ml and vanadate 1 mM present; 37°, 30 minutes
Protocol: as §1, §2

[3] = tested on: mammalian vacuolar-type (H+)-ATPase (from chromaffin granule membranes); test: mammalian vacuolar-type (H+)-ATPase inhibition, side-by-side test; conditions: mammalian versus fungal enzyme
Text: The inhibitory data were obtained using the same procedures and biological preparations described in Bowman et al., Proc. Natl. Acad. Sci. USA, 85, 7972-7976 (November 1988).

Structure (SMILES): CO/N=C/C=C\C(=O)N/C=C/CC1CC(=O)OC(C)/C=C/C(O)/C(C)=C\Cc2cccc(O)c2C(=O)O1 (stereo not drawn) [lobatamide A]
- IC50 [1]: 1.8 nM
- IC50 [2]: 2.8 nM
- selectivity for mammalian versus fungal vacuolar-type (H+)-ATPase [3]: highly selective
